Test results reported in EP0185020B1, “NI[…] PREPARATION THEREOF AND UTILIZATION THEREOF IN ANTICANCEROUS CHEMIOTHERAPY” (CENTRE NATIONAL DE LA RECHERCHE SCIENTIFIQUE (CNRS), priority 1984, dated 1985).
Read-outs that look alike come from different tables or passages of the source.

How the values were obtained:
[1] = test system: Carcinome pulmonaire de Lewis (implanté en sous-cutané); design: key: N.S.: Non significatif; ∞: 50% en plus des animaux traités sont guéris; details: jours 1,5,9, cited from earlier work
[2] = test system: Carcinome du côlon (côlon 26) (implanté en sous-cutané); details: Carcinome du côlon (côlon 26) s.c., jours 1,5,9, cited from earlier work
[3] = Solubility in solvents allowing intravenous administration; type: physicochemical; details: solvants autorisant l'administration par voie intraveineuse
From the text: Ont été administrés par voie intraveineuse (i.v.) dans la veine caudale, les mélanges A, A2 et B, B2 dans les proportions et aux doses utilisées dans a). La comparaison avec la CNCC pour cette voie d'administration est impossible en raison de l'insolubilité de ce composé dans les solvants autorisant l'administration par voie intraveineuse. Les résultats sont présentés sur le tableau III.

[4] = test system: Mélano-carcinome B 16 (implanté en sous-cutané); design: key: N.S.: Non significatif; ∞: 50% en plus des animaux traités sont guéris; details: Mélano-carcinome B 16 s.c., jours 1,5,9, cited from earlier work
[5] = test system: Leucémie L 1210 (greffée par voie i.c.); design: key: N.S.: Non significatif; ∞: 50% en plus des animaux traités sont guéris; details: Leucémie L 1210 i.c., jours 1,5,9, cited from earlier work
[6] = test system: M 555 ovarienne (implanté en sous-cutané); details: M 555 ovarienne s.c., jours 1,5,9, cited from earlier work
[7] = test system: Gliome 26 (implanté en sous-cutané); design: key: N.S.: Non significatif; ∞: 50% en plus des animaux traités sont guéris; details: Gliome 26 s.c., jours 1,5,9, cited from earlier work
[8] = test system: Fibrosarcome I.C.I.G. C1 (implanté en sous-cutané); design: key: N.S.: Non significatif; ∞: 50% en plus des animaux traités sont guéris; details: jours 1,5,9, cited from earlier work
[9] = test system: Adénocarcinome mammaire TM2 (implanté en sous-cutané); design: key: N.S.: Non significatif; ∞: 50% en plus des animaux traités sont guéris; details: jours 1,5,9, cited from earlier work
[10] = test system: leucémie L 1210 greffée i.p.; assay: Antitumour activity on L1210 leukaemia grafted i.p. in mice, mixtures A1 A2 and B1 B2 (INSERM Unit 71, Example 12); type: in vivo, souris B6D2F1/IFFA CREDO; details: J1, J5, J9
From the text: Au jour J: 0, des souris mâles B6D2F1 âgées de trois mois reçoivent par voie intrapéritonéale 10^5 cellules de la souche leucémique L 1210. Les animaux sont répartis en lots de 8 à 10 animaux pour les groupes témoins et de 6 à 8 animaux pour les groupes traités. Aux jours J : 1, J : 5, J : 9, les animaux reçoivent par voie intrapéritonéale ou intraveineuse le traitement à différentes doses. La CNCC est administrée en suspension dans l'huile d'olive. Les produits selon l'invention sont administrés dans du sérum physiologique. La mortalité est enregistrée tous les jours. La médiane de survie des animaux traités et des animaux témoins a été déterminée. Les résultats sont considérés comme positifs lorsque l'index I = [formula] est supérieur à 125.
La valeur ∞ signifie que 50 à 100% des animaux sont survivants au jour J : 90.
L'activité cytostatique sur la leucémie L 1210 des produits selon l'invention a été évaluée chez des souris B6D2F1/IFFA CREDO d'après le protocole précédemment décrit.
Ont été administrés par voie intrapéritonéale (i.p.) soit le mélange A, A2 dans les proportions suivantes A, (70%) et A2 (30%), soit le mélange B, B2 dans les mêmes proportions, soit la CNCC aux doses suivantes: 10 mg/kg, 20 mg/kg, 30 mg/kg, 40 mg/kg et 50 mg/kg. Les résultats sont présentés sur le tableau Il et appellent les commentaires suivants: • - très bonne efficacité du mélange A, A2 aux doses de 20 mg/kg, 30 mg/kg et 40 mg/kg et du mélange B, B2 aux doses de 20 mg/kg, 30 mg/kg, 40 mg/kg et 50 mg/kg. […] De plus, le nombre de survivants à 90 jours est plus grand chez les animaux ayant reçu les produits selon l'invention par rapport aux animaux ayant reçu la CNCC. […]

Q: Which “Augmentation de la durée de survie (I.L.S.: T/C×100)” value (“Augmentation de la durée de survie” below) ([1]; 30 mg/kg I.P.) does the source give for `O=NN(CCCl)C(=O)NCCSSCCNC(=O)N(CCCl)N=O` [CNCC] here?
A: ∞ (50% en plus des animaux traités sont guéris)

Q: And the “Augmentation de la durée de survie” value ([2]; 30 mg/kg I.P.)?
A: ∞ (50% en plus des animaux traités sont guéris)

Q: And the “solubilité, in words” value [3]?
A: insolubilité

Q: And the “Augmentation de la durée de survie” value ([4]; 30 mg/kg I.P.)?
A: 200

Q: What about the “Augmentation de la durée de survie” value ([5]; 30 mg/kg I.P.) of the same compound?
A: ∞ (50% en plus des animaux traités sont guéris)

Q: And the “Augmentation de la durée de survie” value ([6]; 30 mg/kg I.P.)?
A: >254

Q: And the “Augmentation de la durée de survie” value ([7]; 30 mg/kg I.P.)?
A: 200

Q: What about the “Augmentation de la durée de survie” value ([8]; 30 mg/kg I.P.) of the same compound?
A: N.S.

Q: And the “Augmentation de la durée de survie” value ([9]; 30 mg/kg I.P.)?
A: 185

Q: And the “Nombre de survivants à 90 jours” value ([10]; 10 mg/kg)?
A: 0/6

Q: And the “T/C × 100” value ([10]; 10 mg/kg)?
A: 250

Q: And the “Nombre de survivants à 90 jours” value ([10]; 20 mg/kg)?
A: 6/6

Q: And the “T/C × 100” value ([10]; 20 mg/kg)?
A: ∞ (50 à 100% des animaux survivants à 90 jours)

Q: And the “Nombre de survivants à 90 jours” value ([10]; 30 mg/kg)?
A: 6/6

Q: What about the “T/C × 100” value ([10]; 30 mg/kg) of the same compound?
A: ∞ (50 à 100% des animaux survivants à 90 jours)

Q: What about the “Nombre de survivants à 90 jours” value ([10]; 40 mg/kg) of the same compound?
A: 3/6

Q: And the “T/C × 100” value ([10]; 40 mg/kg)?
A: ∞ (50 à 100% des animaux survivants à 90 jours)

Q: And the “Nombre de survivants à 90 jours” value ([10]; 50 mg/kg)?
A: 0/6

Q: What about the “T/C × 100” value ([10]; 50 mg/kg) of the same compound?
A: 125

Q: Which “Augmentation de la durée de survie” value ([1]; 15 mg/kg I.P.) does the source give for `O=NN(CCCl)C(=O)N[C@H]1C(O)O[C@H](CO)[C@@H](O)[C@@H]1O` (stereo partly drawn) [CHLOROZOTOCINE] here?
A: N.S.

Q: What about the “Augmentation de la durée de survie” value ([2]; 15 mg/kg I.P.) of the same compound?
A: ∞ (50% en plus des animaux traités sont guéris)

Q: What about the “Augmentation de la durée de survie” value ([4]; 15 mg/kg I.P.) of the same compound?
A: N.S.

Q: What about the “Augmentation de la durée de survie” value ([5]; 15 mg/kg I.P.) of the same compound?
A: N.S.

Q: What about the “Augmentation de la durée de survie” value ([6]; 15 mg/kg I.P.) of the same compound?
A: ∞ (50% en plus des animaux traités sont guéris)

Q: And the “Augmentation de la durée de survie” value ([7]; 15 mg/kg I.P.)?
A: N.S.

Q: And the “Augmentation de la durée de survie” value ([8]; 15 mg/kg I.P.)?
A: ∞ (50% en plus des animaux traités sont guéris)

Q: And the “Augmentation de la durée de survie” value ([9]; 15 mg/kg I.P.)?
A: N.S.
